Assay: gradient 5% acetonitrile 3 min, to 50% in 2 min, to 85% in 15 min, held 3 min, 100 µL/min
Settings: column: Zorbax Extend-C18 2.1 x 50 mm; eluents: water / acetonitrile, 0.1% formic acid
Outline: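 Using water and acetonitrile that each contained 0.1% formic acid, mixtures of ~100 pure standards were separated at 100 μL/min on a Zorbax Extend-C18 column (2.1 × 50 mm, 1.8 μm). The HPLC fed a quadrupole time-of-flight mass spectrometer working in positive and negative ionization mode, with dead and dwell volumes of 40 μL and 900 μL. Data were acquired over 3 months. Retention time was read from computationally picked adduct peaks after manual inspection of each.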

RP-LC retention time | Compound
603 s | CCN(CC)C(=O)c1ccc2c(c1)N(CC(=O)NCCN1CCCCCC1)C(=O)CO2
752 s | O=C(Cn1c(=O)c2cc(C3CC3)nn2c2ncccc21)Nc1ccccc1
676 s | CN(C)C(=O)CSc1nnc(-c2ccc3c(c2)OCCCO3)n1C1CC1
860 s | CCN(Cc1ccccc1)C(=O)c1cn2cc(Cl)ccc2n1
673 s | COc1ccc(-c2nc3cnccn3c2NCCC(=O)Nc2ccc3c(c2)OCO3)cc1
748 s | CCCn1cc(CCNC(=O)c2ccccc2Br)c2cccnc21
854 s | O=C(CSCC(=O)Nc1nc2ccccc2s1)Nc1nc(-c2cccs2)cs1
764 s | O=C(Cc1csc(-c2ccccc2)n1)Nc1nc(-c2ccc3c(c2)CCCC3)cs1
1010 s | CCOC(=O)c1ccccc1NC(=O)Cn1c(=O)n(-c2ccc(F)cc2)c(=O)c2c1cc(C)n2C
779 s | O=C(CCS(=O)(=O)c1ccccc1)N1CCCc2ccccc21
776 s | CSc1cccc(NC(=O)N2CCN(Cc3nc4ccc(C)cc4o3)CC2)c1
981 s | CCOc1ccc(-n2ccnc(NC(=O)Nc3ccccc3)c2=O)cc1
999 s | COC(=O)c1cccc(C(=O)Nc2cc(Cl)ccc2C)n1
641 s | COC(=O)c1ccc(NC(=O)C2CCCN2S(=O)(=O)c2ccc(F)cc2)cc1 (stereo not given)
787 s | COCCCNC(=O)C1c2ccccc2C(=O)N1CCc1ccc(C)cc1 (stereo not given)
1010 s | O=C(CCn1c(=O)sc2ccccc21)Nc1nc(-c2ccccc2)cs1
1120 s | COc1ccc(-c2noc(CN3C(=O)COc4ccc(C(C)(C)C)cc43)n2)cc1OC
814 s | COc1ccc(NC(=O)CSc2cc(N3CCN(c4ccccc4OC)CC3)ncn2)cc1OC
820 s | Cc1ccc(CN2C(=O)NC3(CCN(C(=O)c4cccs4)CC3)C2=O)cc1
1030 s | O=C(Nc1ccc(OC(F)(F)F)cc1)C(=O)Nc1cccc([N+](=O)[O-])c1

RP-LC retention time | Compound
974 s | CCc1ccc(NC(=O)CSc2cc(N3CCCCC3)ncn2)cc1
697 s | Cn1c(=O)c2c(ncn2CC(=O)OCc2cc(-c3cccs3)on2)n(C)c1=O
952 s | N#Cc1ccc(NC(=O)Cn2cccc(-c3nc(-c4ccc(Br)cc4)no3)c2=O)cc1
714 s | Cc1ccc(C2=NC3(CCN(C(=O)Nc4ccc5c(c4)OCO5)CC3)NC2=O)cc1
1170 s | CC1CCCN(c2nn(CC(=O)Nc3ccc(C(F)(F)F)cc3)c(=O)c3ccccc23)C1 (stereo not given)
614 s | COc1ccc(C(C)NC(=O)Cc2c[nH]c3ncccc23)cc1 (stereo not given)
678 s | O=C(NCCCn1nc(-c2ccco2)ccc1=O)Nc1ccc2c(c1)OCO2
870 s | Cc1ccnn1-c1ccc(SCC(=O)Nc2cccc(F)c2)nn1
581 s | O=C(Nc1ccc(F)cc1F)N1CCN(CCn2c(-c3ccncc3)nc3cccnc32)CC1
729 s | Cc1ccc(C)c(NC(=O)N2CCCC2c2nncn2-c2ccccc2)c1 (stereo not given)
1050 s | Cc1ccccc1NC(=O)N1CCCC1c1nc(-c2cccc(Cl)c2)no1 (stereo not given)
786 s | CC(C)CN1CCn2cc(S(=O)(=O)Nc3cccc(F)c3)cc2C1=O
743 s | O=C(Nc1nc(CC(=O)N2CCCc3ccccc32)cs1)c1ccco1
680 s | Cc1ccccc1NC(=O)NCC(c1cccnc1)c1cn(C)c2ccccc12 (stereo not given)
645 s | CCCNC(=O)C1CCN(c2ccc(SCC(=O)Nc3ccc(C)cc3)nn2)CC1
857 s | CCCN1C(=O)Cc2ccccc2C1C(=O)NCc1ccc(Br)cc1 (stereo not given)
689 s | Cc1[nH]ncc1CNC(=O)c1ccc2nc(Cc3ccccc3F)oc2c1
915 s | COc1cc(Cl)ccc1C(=O)Nc1ccc2c(c1)Sc1ncccc1C(=O)N2C
612 s | CCc1ccc2[nH]c3c(c(=O)c2c1)CN(CC(=O)NCc1ccc(OC)cc1)CC3

More lines, now with the values behind:

Compound | RP-LC retention time
O=C(NC1CCCC1)C1CCCN(c2nccnc2Sc2ccccc2)C1 (stereo not given) | 1020 s
c1ccc(CN2CCC3(CCCc4ccccc43)CC2)cc1 | 834 s
CCOC(=O)C1CCN(C(=O)c2sc(-c3cn(C(C)C)c4ncccc34)nc2C)CC1 | 961 s
COc1ccc(-c2nc(-c3cn(Cc4cccc(F)c4)nn3)no2)cc1 | 983 s
O=C(Nc1cnc(-c2ccccc2)nc1)C1CCC1 | 856 s
CCn1cnc(S(=O)(=O)N2CCC(C(=O)Nc3cc(C)ccc3OC)CC2)c1 | 674 s
O=C(NCCN1CCCCC1)C1CCN(c2nc3cccnc3s2)CC1 | 581 s
Cn1ccc2c(cc(C(=O)NCCC3=CCCCC3)n2C)c1=O | 766 s
CCN1c2ccc(F)cc2C(=O)NC12CCN(C(=O)c1ccc(OC)cc1)CC2 | 773 s
CCc1noc2ncnc(NCCN(C)Cc3ccccc3)c12 | 595 s
CCn1cc(CC(=O)NCC2CC2)c2cccnc21 | 624 s
O=C1[C@H]2CCCC[C@H]2C(=O)N1CCCCN1CCN(c2nsc3ccccc23)CC1 | 775 s
CCCNc1cc(C)nc2nc(-c3ccc(C(C)(C)C)cc3)nn12 | 1000 s
O=S(=O)(c1cccc(C(F)(F)F)c1)N1CCC2(CCN(c3cccnc3)C2)C1 (stereo not given) | 702 s
CCn1nccc1-c1csc(S(=O)(=O)N2CCN(c3ccccn3)CC2)c1 | 657 s
CN(CC1CCOCC1)C(=O)Nc1ccc(F)c(Cl)c1 | 797 s
O=C(c1csc(-c2ccc(N3CCOCC3)nc2)n1)N1CCOCC1 | 626 s
CCN1CCN(c2ncnc3c2cnn3-c2ccccc2Cl)CC1 | 582 s
CN(CC1CCOCC1)S(=O)(=O)Cc1ccccc1 | 787 s
CCOC(=O)C1CCN(Cc2nc3nc(C)cc(N4CCOCC4)n3n2)CC1 | 576 s
COc1ccccc1-c1nc2cnccn2c1NCCC(=O)NC1CCCC1 | 618 s
CN(C)C[C@@H]1CN(S(C)(=O)=O)C[C@H]1NC(=O)Cn1c(=O)oc2ccccc21 | 575 s
O=C(CC(c1ccccc1)c1ccccc1)N(Cc1ccsc1)Cc1ccccn1 | 857 s
CCc1nncn1C1CCN(S(=O)(=O)c2ccc(F)cc2)CC1 | 676 s
COCc1noc(C2CN(C(=O)c3ocnc3C)CC23CCCC3)n1 (stereo not given) | 733 s
CCOc1ccc(-c2nc(C3CC(=O)N(c4ccc(Cl)cc4)C3)no2)cc1OCC (stereo not given) | 1150 s

Compound | RP-LC retention time
Cc1nc(N2CCN(c3ccccn3)CC2)nc2c1C(=O)CCC2 | 583 s
CS(=O)(=O)Nc1ccc([N+](=O)[O-])cc1Oc1ccccc1 | 967 s
O=C(COc1ccccc1)N1CCc2[nH]nc(-c3ccccc3)c2C1 | 788 s
COc1cccc(-c2nc(-c3cn(Cc4cccc(F)c4)nn3)no2)c1 | 995 s
COC(=O)c1ccc(C(=O)OC)c(NC(=O)c2cnc3n(c2=O)CCS3)c1 | 700 s
O=C(Cc1cccs1)N1CCN(Cc2nc(-c3ccc(Cl)cc3)cs2)CC1 | 754 s
COc1ccc(S(=O)(=O)N2CCC(n3cnnc3C(C)C)CC2)cc1 | 694 s
Cc1c(-c2noc(C3CCCCC3)n2)nnn1-c1ccccc1 | 1160 s
Cc1noc(C)c1S(=O)(=O)N1CCC(c2nnc(-c3ccco3)o2)CC1 | 756 s
Cc1ccc(N2CC(c3noc(-c4ccc(C)c(C)c4)n3)CC2=O)cc1 (stereo not given) | 1150 s
CCOC(=O)N1CCN(c2nc(F)c3c(c2F)S(=O)(=O)CCN3Cc2cccnc2)CC1 | 636 s
CC(C)c1nc(NC(=O)Cn2nc3c(cc2=O)CCCCC3)n[nH]1 | 632 s
O=S(=O)(c1cccc(-c2nnc(-c3ccc(F)cc3)o2)c1)N1CCCCC1 | 1080 s
Cc1ccc(CN2CCC3(CC2)CC(CC(=O)N2CCOCC2)CCO3)s1 (stereo not given) | 595 s
CCc1noc(-c2cnc3nc(C)ccc3c2NCCc2ccccc2)n1 | 621 s
Cc1cc(-c2nnc3sc(COc4ccc(Br)cc4)nn23)n[nH]1 | 786 s
N#Cc1c(C(F)(F)F)cc(-c2ccccc2)nc1SCCC(N)=O | 839 s
O=C(C1CCCN(c2nccnc2Sc2ccccc2)C1)N1CCCCCC1 (stereo not given) | 1120 s
CCC1CCCCN1C(=O)CN1CN(c2ccc(C)cc2)c2ncccc2S1(=O)=O (stereo not given) | 1030 s
C[C@@H]1CCC2(NC1)O[C@H]1C[C@H]3[C@@H]4CC=C5C[C@@H](O)CC[C@]5(C)[C@H]4CC[C@]3(C)[C@H]1[C@H]2C (stereo not given in full) | 757 s
CCOc1ccc(-c2noc(Cn3c(=O)n(-c4ccc(C)cc4)c(=O)c4sccc43)n2)cc1OC | 987 s
C=CCn1nc2ccc(S(=O)(=O)N3CCCC3)cn2c1=O | 706 s
CN(C)c1ccc(C(=O)N2CCC(COc3ccc(C(=O)NC4CC4)cc3)CC2)cc1 | 779 s
COc1ccc(C(C)NC(=O)C2CCN(c3cnc4nccnc4c3)CC2)cc1OC (stereo not given) | 664 s
CCc1nc2cc(N3CCC(C(=O)NC(C)C)CC3)cnc2nc1CC | 704 s
